Assay results as given in ChEMBL document CHEMBL1201862, “PubChem BioAssay data set” (2004).
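Tested at 5 concentrations; 48 h exposure; 96-well plates; endpoints linearly interpolated, else capped at highest concentration. The concentration for 50% growth inhibition is given as GI50.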 Calls of active or inactive are those of the source. Rule as the data show it: active = GI50 up to about 1.1 µM and inactive = higher.

Legend:
Experiment in all cases: NCI anticancer screen, dose series, 48 h
ACHN = test system: ACHN
MDA-N = test system: MDA-N
SK-MEL-2 = test system: SK-MEL-2
SF-295 = test system: SF-295
BT-549 = test system: BT-549
EKVX = test system: EKVX
SK-MEL-28 = test system: SK-MEL-28
HOP-92 = test system: HOP-92
CAKI-1 = test system: CAKI-1
SK-OV-3 = test system: SK-OV-3
RPMI-8226 = test system: RPMI-8226
NCI-H460 = test system: NCI-H460
SF-539 = test system: SF-539
SNB-19 = test system: SNB-19
RXF 393 = test system: RXF 393
SNB-75 = test system: SNB-75
HCT-15 = test system: HCT-15
UO-31 = test system: UO-31
HCC 2998 = test system: HCC 2998
UACC-62 = test system: UACC-62

SMILES: NC(=O)[C@H](Cc1ccc(O)cc1)NC1=C(Cl)C(=O)c2c(O)ccc(O)c2C1=O
- GI50 (ACHN): 2.67 µM (inactive)
- GI50 (MDA-N): 1.93 µM (inactive)
- GI50 (SK-MEL-2): 9.02 µM (inactive)
- GI50 (SF-295): > 10 µM (inactive)
- GI50 (BT-549): 2.47 µM (inactive)
- GI50 (EKVX): > 10 µM (inactive)
- GI50 (SK-MEL-28): 2.21 µM (inactive)
- GI50 (HOP-92): 2.13 µM (inactive)
- GI50 (CAKI-1): 2.37 µM (inactive)
- GI50 (SK-OV-3): > 10 µM (inactive)
- GI50 (RPMI-8226): 2.25 µM (inactive)
- GI50 (NCI-H460): 7.76 µM (inactive)
- GI50 (SF-539): 2.17 µM (inactive)
- GI50 (SNB-19): > 10 µM (inactive)
- GI50 (RXF 393): 3.52 µM (inactive)
- GI50 (SNB-75): 4.93 µM (inactive)
- GI50 (HCT-15): 1.79 µM
- GI50 (UO-31): 4 µM (inactive)
- GI50 (HCC 2998): 2.37 µM (inactive)
- GI50 (UACC-62): 1.85 µM (inactive)

SMILES: COC(=O)C(Cc1c(C2Nc3ccccc3C2CC(NC(=O)CNC(C)=O)C(=O)OC)[nH]c2ccccc12)NC(=O)CNC(C)=O (stereo not given)
- GI50 (ACHN): > 100 µM (inactive)
- GI50 (MDA-N): > 100 µM (inactive)
- GI50 (SK-MEL-2): > 86.9 µM (inactive)
- GI50 (SF-295): > 100 µM (inactive)
- GI50 (BT-549): > 100 µM (inactive)
- GI50 (EKVX): > 100 µM (inactive)
- GI50 (SK-MEL-28): > 100 µM (inactive)
- GI50 (HOP-92): > 100 µM (inactive)
- GI50 (CAKI-1): > 100 µM (inactive)
- GI50 (SK-OV-3): > 100 µM (inactive)
- GI50 (RPMI-8226): > 100 µM (inactive)
- GI50 (NCI-H460): > 100 µM (inactive)
- GI50 (SF-539): > 100 µM (inactive)
- GI50 (SNB-19): > 100 µM (inactive)
- GI50 (RXF 393): > 100 µM (inactive)
- GI50 (SNB-75): 7.82 µM (inactive)
- GI50 (HCT-15): > 100 µM
- GI50 (UO-31): > 100 µM (inactive)
- GI50 (HCC 2998): > 100 µM (inactive)
- GI50 (UACC-62): > 100 µM (inactive)

SMILES: O=C(NC(=O)c1c(Cl)nc2sccn12)Nc1ccc(Cl)cc1
- GI50 (ACHN): 77.4 µM (inactive)
- GI50 (MDA-N): > 100 µM (inactive)
- GI50 (SK-MEL-2): 59.3 µM (inactive)
- GI50 (SF-295): 33.6 µM (inactive)
- GI50 (BT-549): 28.4 µM (inactive)
- GI50 (EKVX): > 91.6 µM (inactive)
- GI50 (SK-MEL-28): > 100 µM (inactive)
- GI50 (HOP-92): 25.1 µM (inactive)
- GI50 (CAKI-1): > 83.9 µM (inactive)
- GI50 (SK-OV-3): 27.4 µM (inactive)
- GI50 (RPMI-8226): > 100 µM (inactive)
- GI50 (NCI-H460): > 85.9 µM (inactive)
- GI50 (SF-539): 30 µM (inactive)
- GI50 (SNB-19): 28.4 µM (inactive)
- GI50 (RXF 393): 30.9 µM (inactive)
- GI50 (SNB-75): 19.9 µM (inactive)
- GI50 (HCT-15): > 96.4 µM
- GI50 (UO-31): 67.1 µM (inactive)
- GI50 (HCC 2998): 54.1 µM (inactive)
- GI50 (UACC-62): > 100 µM (inactive)

SMILES: O=C(/C=C/c1cccc(Br)c1)c1ccc(Cl)cc1
- GI50 (ACHN): 16.8 µM (inactive)
- GI50 (MDA-N): 6.32 µM (inactive)
- GI50 (SK-MEL-2): 15.3 µM (inactive)
- GI50 (SF-295): 17.5 µM (inactive)
- GI50 (BT-549): 17 µM (inactive)
- GI50 (EKVX): 16 µM (inactive)
- GI50 (SK-MEL-28): 15.1 µM (inactive)
- GI50 (HOP-92): 15 µM (inactive)
- GI50 (CAKI-1): 14 µM (inactive)
- GI50 (SK-OV-3): 21.1 µM (inactive)
- GI50 (RPMI-8226): 2.08 µM (inactive)
- GI50 (NCI-H460): 16.9 µM (inactive)
- GI50 (SF-539): 16.6 µM (inactive)
- GI50 (SNB-19): 16.3 µM (inactive)
- GI50 (RXF 393): 17.8 µM (inactive)
- GI50 (SNB-75): 13.6 µM (inactive)
- GI50 (HCT-15): 14.8 µM
- GI50 (UO-31): 15.5 µM (inactive)
- GI50 (HCC 2998): 18.8 µM (inactive)
- GI50 (UACC-62): 14.8 µM (inactive)

SMILES: CCC1(O)C(=O)OCc2c1cc1n(c2=O)Cc2cc3c(N)cccc3nc2-1 (stereo not given) [RS-9-Aminocamptothecin]
- GI50 (ACHN): < 0.01 µM (active)
- GI50 (MDA-N): 0.182 µM (active)
- GI50 (SK-MEL-2): 0.288 µM (active)
- GI50 (SF-295): 0.0102 µM (active)
- GI50 (BT-549): 0.0668 µM (active)
- GI50 (EKVX): 1.2 µM (inactive)
- GI50 (SK-MEL-28): 0.188 µM (active)
- GI50 (HOP-92): 0.0349 µM (active)
- GI50 (CAKI-1): < 0.01 µM (active)
- GI50 (SK-OV-3): 0.0264 µM (active)
- GI50 (RPMI-8226): 0.0416 µM (active)
- GI50 (NCI-H460): < 0.0106 µM (active)
- GI50 (SF-539): < 0.014 µM (active)
- GI50 (SNB-19): < 0.0138 µM (active)
- GI50 (RXF 393): 0.0447 µM (active)
- GI50 (SNB-75): 0.013 µM (active)
- GI50 (HCT-15): 0.267 µM
- GI50 (UO-31): < 0.0109 µM (active)
- GI50 (HCC 2998): 0.177 µM (active)
- GI50 (UACC-62): < 0.01 µM (active)

SMILES: CCCCCNC1=CC(=O)c2ccccc2C1=O
- GI50 (ACHN): 58.9 µM (inactive)
- GI50 (MDA-N): > 100 µM (inactive)
- GI50 (SK-MEL-2): 21.6 µM (inactive)
- GI50 (SF-295): 26.3 µM (inactive)
- GI50 (BT-549): 19.5 µM (inactive)
- GI50 (EKVX): > 58.9 µM (inactive)
- GI50 (SK-MEL-28): > 100 µM (inactive)
- GI50 (HOP-92): 17.4 µM (inactive)
- GI50 (CAKI-1): 33.7 µM (inactive)
- GI50 (SK-OV-3): > 51.4 µM (inactive)
- GI50 (RPMI-8226): > 91.8 µM (inactive)
- GI50 (NCI-H460): 34.5 µM (inactive)
- GI50 (SF-539): 20.6 µM (inactive)
- GI50 (SNB-19): 24.3 µM (inactive)
- GI50 (RXF 393): 21.7 µM (inactive)
- GI50 (SNB-75): 22.2 µM (inactive)
- GI50 (HCT-15): 52.2 µM
- GI50 (UO-31): > 51.6 µM (inactive)
- GI50 (HCC 2998): > 78.2 µM (inactive)
- GI50 (UACC-62): 33.7 µM (inactive)

SMILES: Nc1nc(Cl)cc(Oc2ccc(Cl)cc2)n1
- GI50 (ACHN): 31.4 µM (inactive)
- GI50 (MDA-N): > 61 µM (inactive)
- GI50 (SK-MEL-2): > 100 µM (inactive)
- GI50 (SF-295): > 55.8 µM (inactive)
- GI50 (BT-549): 28.2 µM (inactive)
- GI50 (EKVX): > 100 µM (inactive)
- GI50 (SK-MEL-28): > 57.3 µM (inactive)
- GI50 (HOP-92): 23.2 µM (inactive)
- GI50 (CAKI-1): 44.6 µM (inactive)
- GI50 (SK-OV-3): > 55.2 µM (inactive)
- GI50 (RPMI-8226): > 55.6 µM (inactive)
- GI50 (NCI-H460): > 54.7 µM (inactive)
- GI50 (SF-539): > 50.7 µM (inactive)
- GI50 (SNB-19): > 53.7 µM (inactive)
- GI50 (RXF 393): > 100 µM (inactive)
- GI50 (SNB-75): > 100 µM (inactive)
- GI50 (HCT-15): > 57.4 µM
- GI50 (UO-31): 29.9 µM (inactive)
- GI50 (HCC 2998): > 55.2 µM (inactive)
- GI50 (UACC-62): 29.9 µM (inactive)

SMILES: Cc1noc(NS(=O)(=O)c2ccc(NC(=O)c3ccc4[nH]c5ccccc5c(=O)c4c3)cc2)c1C
- GI50 (ACHN): 53.8 µM (inactive)
- GI50 (MDA-N): 57.8 µM (inactive)
- GI50 (SK-MEL-2): 32.1 µM (inactive)
- GI50 (SF-295): 42.2 µM (inactive)
- GI50 (BT-549): 33.3 µM (inactive)
- GI50 (EKVX): 80.4 µM (inactive)
- GI50 (SK-MEL-28): 35.4 µM (inactive)
- GI50 (HOP-92): 37.3 µM (inactive)
- GI50 (CAKI-1): > 100 µM (inactive)
- GI50 (SK-OV-3): 61.9 µM (inactive)
- GI50 (RPMI-8226): 50.4 µM (inactive)
- GI50 (NCI-H460): 87.9 µM (inactive)
- GI50 (SF-539): 20.6 µM (inactive)
- GI50 (SNB-19): 87.9 µM (inactive)
- GI50 (RXF 393): 36.4 µM (inactive)
- GI50 (SNB-75): 32.1 µM (inactive)
- GI50 (HCT-15): > 100 µM
- GI50 (UO-31): 75 µM (inactive)
- GI50 (HCC 2998): 22.3 µM (inactive)
- GI50 (UACC-62): 49.5 µM (inactive)

SMILES: O=C(/N=S(/NC(=O)c1ccccc1)C(Cl)(Cl)Cl)c1ccccc1 (stereo not given)
- GI50 (ACHN): 18.4 µM (inactive)
- GI50 (MDA-N): 29.8 µM (inactive)
- GI50 (SK-MEL-2): 31.9 µM (inactive)
- GI50 (SF-295): 9.25 µM (inactive)
- GI50 (BT-549): 12.7 µM (inactive)
- GI50 (EKVX): 19.7 µM (inactive)
- GI50 (SK-MEL-28): 25.3 µM (inactive)
- GI50 (HOP-92): 32.3 µM (inactive)
- GI50 (CAKI-1): 20.9 µM (inactive)
- GI50 (SK-OV-3): > 31.6 µM (inactive)
- GI50 (RPMI-8226): 41.2 µM (inactive)
- GI50 (NCI-H460): 30.5 µM (inactive)
- GI50 (SF-539): 21.1 µM (inactive)
- GI50 (SNB-19): 51.2 µM (inactive)
- GI50 (RXF 393): 12.1 µM (inactive)
- GI50 (SNB-75): 40.6 µM (inactive)
- GI50 (HCT-15): 8.59 µM
- GI50 (UO-31): 16.3 µM (inactive)
- GI50 (HCC 2998): 34.8 µM (inactive)
- GI50 (UACC-62): 22.6 µM (inactive)

SMILES: O=c1oc2ccc3ccccc3c2cc1-c1cn2ccsc2n1
- GI50 (ACHN): 16.1 µM (inactive)
- GI50 (MDA-N): 21.4 µM (inactive)
- GI50 (SK-MEL-2): > 100 µM (inactive)
- GI50 (SF-295): 78.2 µM (inactive)
- GI50 (BT-549): 16.8 µM (inactive)
- GI50 (EKVX): 16.1 µM (inactive)
- GI50 (SK-MEL-28): 26 µM (inactive)
- GI50 (HOP-92): 13 µM (inactive)
- GI50 (CAKI-1): 23.8 µM (inactive)
- GI50 (SK-OV-3): > 100 µM (inactive)
- GI50 (RPMI-8226): 11.5 µM (inactive)
- GI50 (NCI-H460): 51.5 µM (inactive)
- GI50 (SF-539): 20.7 µM (inactive)
- GI50 (SNB-19): > 100 µM (inactive)
- GI50 (RXF 393): 17.3 µM (inactive)
- GI50 (SNB-75): > 100 µM (inactive)
- GI50 (HCT-15): 16 µM
- GI50 (UO-31): 14.6 µM (inactive)
- GI50 (HCC 2998): 16.7 µM (inactive)
- GI50 (UACC-62): 16.2 µM (inactive)
